Results taken from patent publication US20080293699A1, “Inhibitors of thapsigargin-induced cell death” (priority 2007, published 2008).

What was measured:
[1] = test system: phospho-c-Jun; assay: Immunoblotting of thapsigargin-induced c-Jun phosphorylation in CSM14.1 cells; format: cell-based, rat; details: immunoblotting with phospho-specific antibody, 10 μM, 25 μM hits
Description: After confirming the pathway selectivity of compounds, additional downstream assays can be performed to map the specific signal transduction pathway inhibited by the compounds. In this regard, various antibody reagents are commercially available for assessing the status of the three major pathways known to be activated by ER stress: (1) PERK, (2) Ire1, and (3) ATF6 (Xu et al., J. Clinical Invest., 115:2656-2664, 2005). Immunoblotting experiments can be performed to assess the expression or phosphorylation (using phospho-specific antibodies) of marker proteins in these pathways. […] CSM 14.1 cells were cultured with DMSO or with 25 μM of hit compounds for two hours, followed by treatment of thapsigargin (15 μM). Cell lysates were prepared and analyzed by SDS-PAGE/immunoblotting using antibodies specific for phospho-c-Jun, phospho-eIF2α, phospho-p38 MAPK, and tubulin (a loading control). CSM14.1 cells were cultured with either DMSO or one of the active compounds at 1, 5, and 10 μM, followed two hours later by 15 μM TG. After two hrs, cell lysates were prepared, normalized for protein content, and either analyzed by SDS-PAGE/immunoblotting using anti-p38-MAPK pan-reactive antibody or phospho-specific antibody with ECL-based detection, followed by densitometry analysis of x-ray films, normalizing phosphor-p38 MAPK relative to total p38 MAPK, or analyzed using a meso-scale instrument from MSD and a procedure in which total p38 MAPK is captured on plates, and the relative amounts of phosphorylated protein were determined using phospho-specific antibody (MSD catalog #K15112D1). […] Suppression of p38 MAPK and c-Jun phosphorylation was dose-dependent, and could not be explained by a decline in total levels of these proteins. […] Proteolytic processing of ATF6 was also not inhibited by our hit compounds. […] Screens of other libraries (such as the NIH compound collection) may yield cytoprotective compounds with different mechanisms.
1) CSM14.1 cells were plated at a density of 2×10^5 cells/well at 6 well dish (Greiner Bio one) in DMEM containing 2% FBS and antibiotics.
2) After overnight incubation, cells were treated by DMSO (0.5%) or compounds (25 μM) for two hours, followed by TG (15 uM) treatment.
3) After two hours, cells were lyzed in 250 uL of lysis buffer and subjected to protein concentration decision, and to SDS PAGE/Western blotting using antibodies specific for phospho p38 MAPK (Cell signaling 9211), p38 MAPK (Santa Cruz-C20), phospho c-Jun (Cell signaling 9164), c-Jun (Santa Cruz-SC 1694), phospho eIF2α (Cell signaling 3597) and α-tubulin.
CSM 14.1 cells were cultured with DMSO or with 25 μM of hit compounds for two hours followed by treatment with thapsigargin (15 μM). Cell lysates were prepared and analyzed by SDS-PAGE/immunoblotting using antibodies specific for: c-Jun, phosphor-c-Jun (ser 73), eIF2a, phosphor-eIF2a (ser 51), p38 MAPK, phosphor-p38 MAPK (Thr180/Tyr182), ATF-6, CHOP and tubulin (loading control). ER stress-induced activation of C-Jun and p38 MAPK is suppressed by the 11 hit compounds.
CSM cells were treated with two compounds at increasing doses. Pre-incubation time, thapsigargin treatment, cell extract preparation and immunoblotting protocols were as described previously.

[2] = target: Ire1 (Homo sapiens, UniProt O75460); assay: Ire1 autophosphorylation in vitro kinase assay; format: biochemical; details: 32P-γ-ATP, up to 50 μM
Chain of Ire1 (O75460 19-977, species assumed): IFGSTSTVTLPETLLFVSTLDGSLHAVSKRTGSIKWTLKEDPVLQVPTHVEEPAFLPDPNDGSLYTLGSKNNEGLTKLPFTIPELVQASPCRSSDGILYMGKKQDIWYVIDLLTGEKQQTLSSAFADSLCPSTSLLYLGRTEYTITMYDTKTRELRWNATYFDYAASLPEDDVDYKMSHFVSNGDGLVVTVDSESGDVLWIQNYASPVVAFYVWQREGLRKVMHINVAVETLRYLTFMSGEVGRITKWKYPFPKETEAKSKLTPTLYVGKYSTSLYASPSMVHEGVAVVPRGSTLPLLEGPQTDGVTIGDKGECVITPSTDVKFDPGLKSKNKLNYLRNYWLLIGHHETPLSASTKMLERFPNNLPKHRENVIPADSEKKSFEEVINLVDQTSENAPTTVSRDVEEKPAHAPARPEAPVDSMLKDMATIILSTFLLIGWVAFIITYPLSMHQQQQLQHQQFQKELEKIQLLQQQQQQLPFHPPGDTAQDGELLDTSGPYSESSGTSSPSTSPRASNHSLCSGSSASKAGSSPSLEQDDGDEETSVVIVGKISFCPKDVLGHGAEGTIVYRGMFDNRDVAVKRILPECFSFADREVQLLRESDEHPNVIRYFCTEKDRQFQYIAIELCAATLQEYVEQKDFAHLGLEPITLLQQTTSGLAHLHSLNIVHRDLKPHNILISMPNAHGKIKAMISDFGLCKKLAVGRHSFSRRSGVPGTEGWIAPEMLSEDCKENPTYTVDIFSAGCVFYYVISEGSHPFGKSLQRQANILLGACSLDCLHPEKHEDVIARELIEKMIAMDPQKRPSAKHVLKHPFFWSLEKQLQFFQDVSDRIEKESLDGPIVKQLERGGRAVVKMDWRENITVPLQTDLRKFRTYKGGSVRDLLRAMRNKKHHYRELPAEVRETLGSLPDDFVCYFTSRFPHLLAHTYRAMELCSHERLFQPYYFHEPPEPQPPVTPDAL
Protocol: Suppression of thapsigargin-induced phosphorylation of p38MAPK was also measured by a quantitative ELISA-methods, with IC50 for p38MAPK phosphorylation estimated at <5 μM. In contrast, thapsigargin-induced expression of CHOP, expression of ATF4, proteolytic processing of ATF6, phosphorylation of eIF2a (Ser 51), auto-phosphorylation of Ire1a or auto-phosphorylation of ASK1 were not inhibited directly by CID-2878746 at concentrations up to 50 μM tested by in vitro kinase assay using p32-γ-ATP substrate. […] Thapsigargin-induced reductions in phosphorylation of ASK1 at the serine 967 site in ASK1 transfected 293T cells are inhibited by compound 5962123 at concentrations of 50-100 μM, as determined by immunoblotting using anti-phospho-specific (ser 967) antibody, but thapsigargin-induced changes in phosphorylation of ASK1 at ser 83 and thr 845 are not modulated by compound 5962123 at concentrations as high as 100 μM in ASK1-transfected HEK293T cells.
C-Jun and p38 MAPK work downstream of the Ire1 pathway (see FIG. 21), we tested whether one of our hit compounds (6239507) inhibits autophosphorylation of any of kinases in this Ire1-ASK1-JNK/p38 MAPK pathway. […] An Ire1 autophosphorylation assay was performed. […] Incorporation values of ^32P-γ-ATP were evaluated by a scintillation counter. […] Incorporation values of ^32P-γ-ATP were evaluated by a scintillation counter. […]

Compound	Thapsigargin-induced phosphorylation of c-Jun [1]	Ire1 auto-phosphorylation ([2]; listed as CID-2878746)	Ire1 auto-phosphorylation [2]
CCN(CC)c1ccc(C2Nc3ccccc3NC3=C2C(=O)CC(c2ccccc2)C3)cc1 (stereo not shown) [Compound 5962123, 6-(4-diethylaminophenyl)-9-phenyl-5,6,8,9,10,11-hexahydrobenzo[c][1,5]benzodiazepin-7-one]	inhibits	not inhibited	
COc1ccc(C2CC(=O)C3=C(C2)Nc2ccccc2NC3c2ccccc2C(F)(F)F)cc1OC (stereo not shown) [Compound 6237735]	dose-dependent decrease		
COc1ccc(C2CC(=O)C3=C(C2)Nc2ccccc2NC3c2cccc(Oc3ccccc3)c2)cc1OC (stereo not shown) [Compound 6239507]			does not modulate
